In brackets after ≈: the same amount, converted by molar mass. Several values for one entry are separate records, joined by “and”; a condition that tells them apart may be missing. Equal values may be shown once.
Experiments:
[1] = In vitro half-life / degradation of solubilized Dex-TEG-Dex in FBS; assay type: in vitro ADME
Experimental: Dex-TEG-Dex was dissolved in acetone at 10 mg/ml and added to 100% FBS to obtain a final concentration of 10 µg/ml and incubated at 37 °C with constant agitation at 115 rpm (VWR). At experimental timepoints of t = 0, 0.5, 1, 2, 3, 4, 5, 6, and 24 h, sample was removed and protein was precipitated with acetonitrile. Samples were vortexed and centrifuged to separate extracted drug from the precipitated protein. The supernatant was then analyzed by HPLC as described above.

[2] = Composition of pellets as made and after release; assay type: physicochemical; settings: Supp Fig 5
Experimental: Release studies were carried out using different media, including PBS (pH 7.4, Gibco), 100% FBS (Sigma, F1051), 1% FBS in PBS pH 7.4, and 3.6% BSA (Sigma, A7906) in PBS (pH 7.4, Gibco). Sink conditions were maintained across all of the in vitro release studies through frequent buffer changes, ensuring that the released drug concentration was always at least five times lower than the solubility limit of the drug in the release buffer being used in order to avoid changes in release kinetics caused by drug levels approaching their saturation limit. Samples were incubated in release medium at 37 °C under constant agitation on an orbital shaker at 115 rpm (VWR). At designated timepoints, sampling was performed by complete removal of medium and replenishment with fresh buffer. Sampling timepoints included 24 h and then every 3–4 days thereafter. For PBS release conditions, samples were analyzed directly. For samples with protein (100% FBS, 1% FBS, 3.6% BSA), protein was precipitated by addition of acetonitrile. Samples were vortexed and centrifuged to separate extracted drug from precipitated protein. The supernatant was then analyzed for drug concentration by HPLC.
Supplementary Figure 5 Proportion of dexamethasone in different forms, namely Dex-TEG-Dex, Dex-TEG, and free Dex (Dex – dexamethasone, TEG – triethylene glycol) in heat-molded pellets as-made and […]
the dimer following submersion in release buffer for 14 days. N=4 samples for as made and N=3 samples for 14 days. Data represent the mean ± standard deviation.
(1 picture or pasted object on this page, not shown here)

[3] = Maximum soluble concentration in culture medium (HPLC); assay type: physicochemical; settings: plasma or biological fluid, kinetic from ethanol stock, fibroblast growth medium, 1% ethanol, sterile filtered
Experimental: Human dermal fibroblasts were chosen for general cytotoxicity assessment as they are commonly employed in standard cytotoxicity testing outlined in ISO10993 guidelines. […] The resulting solution was sterile filtered (Pall) to remove any non-soluble components and the concentration of Dex-TEG-Dex was confirmed by HPLC (6.7 µg/ml). The […] control was regular culture medium with 1% ethanol, while the negative control was culture medium containing 5% DMSO. Following 24 h exposure to the different test groups, a WST-1 assay was performed. Briefly, WST-1 reagent (Roche) was mixed with growth medium at a 1:10 dilution, added to test groups, and incubated at 37 °C and 5% CO2 for 1 h. Supernatant was transferred to a new well and absorbance was measured at 450 nm. After 24 h exposure to test groups, samples were also visualized following Diff-Quik staining following the manufacturer’s recommended protocol (Siemens). Samples were imaged with a Leica DMIL microscope equipped with a Canon PowerShot S70 camera with ZoomBrowser Ex 5.0 software (Canon, version 5.0.0.142).

[4] = pellets after release in 100% FBS, t=14d

With `C[C@@H]1C[C@H]2[C@@H]3CCC4=CC(=O)C=C[C@]4(C)[C@@]3(F)[C@@H](O)C[C@]2(C)[C@@]1(O)C(=O)COC(=O)OCCOCCOCCOC(=O)OCC(=O)[C@@]1(O)[C@H](C)C[C@H]2[C@@H]3CCC4=CC(=O)C=C[C@]4(C)[C@@]3(F)[C@@H](O)C[C@@]21C` [Dex-TEG-Dex] as the compound, how does the “t1/2 of solubilized dimer with protease inhibitor” value ([1]; FBS + Pefabloc 1 mg/ml) read?
Its value is 17.5 ± 4.0 h.

And the “t1/2 of solubilized dimer” value ([1]; FBS, 37 °C)?
Its value is 1.6 ± 0.3 h.

And the “Dex-TEG-Dex” value ([1]; Fig 4f/4g, 100% FBS, 0 h)?
Its value is 8904.60 ng/mL and 12808.33 ng/mL and 10692.90 ng/mL.

What about the “Dex-TEG-Dex” value ([1]; Fig 4f/4g, 100% FBS, 0.5 h) of the same compound?
The value was 7215.95 ng/mL and 9829.58 ng/mL and 8828.65 ng/mL.

And the “Dex-TEG-Dex” value ([1]; Fig 4f/4g, 100% FBS, 1 h)?
Its value is 5359.02 ng/mL and 7447.63 ng/mL and 6811.81 ng/mL.

What about the “Dex-TEG-Dex” value ([1]; Fig 4f/4g, 100% FBS, 2 h) of the same compound?
Its value is 2692.08 ng/mL and 4406.52 ng/mL and 3872.43 ng/mL.

And the “Dex-TEG-Dex” value ([1]; Fig 4f/4g, 100% FBS, 3 h)?
The value was 1327.43 ng/mL and 2230.11 ng/mL and 1843.05 ng/mL.

What about the “Dex-TEG-Dex” value ([1]; Fig 4f/4g, 100% FBS, 4 h) of the same compound?
Its value is 658.17 ng/mL and 1181.11 ng/mL and 1053.60 ng/mL.

What about the “Dex-TEG-Dex” value ([1]; Fig 4f, 100% FBS, 24 h) of the same compound?
Its value is 0.00 ng/mL.

And the “Dex-TEG-Dex” value ([1]; Fig 4g, 100% FBS + Pefabloc, 0 h)?
Its value is 9696.84 ng/mL and 12099.70 ng/mL and 11672.92 ng/mL.

What about the “Dex-TEG-Dex” value ([1]; Fig 4g, 100% FBS + Pefabloc, 0.5 h) of the same compound?
The value was 9639.71 ng/mL and 11685.46 ng/mL and 12342.53 ng/mL.

What about the “Dex-TEG-Dex” value ([1]; Fig 4g, 100% FBS + Pefabloc, 1 h) of the same compound?
The value was 9646.33 ng/mL and 10767.80 ng/mL and 11272.62 ng/mL.

And the “Dex-TEG-Dex” value ([1]; Fig 4g, 100% FBS + Pefabloc, 2 h)?
Its value is 9053.36 ng/mL and 10983.11 ng/mL and 10167.52 ng/mL.

What about the “Dex-TEG-Dex” value ([1]; Fig 4g, 100% FBS + Pefabloc, 3 h) of the same compound?
The value was 9138.02 ng/mL and 9847.00 ng/mL and 8269.83 ng/mL.

What about the “Dex-TEG-Dex” value ([1]; Fig 4g, 100% FBS + Pefabloc, 4 h) of the same compound?
Its value is 8469.46 ng/mL and 9930.96 ng/mL and 8280.63 ng/mL.

And the “Dex-TEG-Dex” value ([1]; Fig 4g, 100% FBS + Pefabloc, 5 h)?
Its value is 8230.46 ng/mL and 9376.67 ng/mL and 8546.80 ng/mL.

What about the “Dex-TEG-Dex” value ([1]; Fig 4g, 100% FBS + Pefabloc, 6 h) of the same compound?
The value was 7196.79 ng/mL and 9318.49 ng/mL and 8262.17 ng/mL.

What about the “Proportion of dexamethasone as Dex-TEG-Dex” value ([2]; heat-molded pellets as-made, t=0) of the same compound?
The value was 99.32 and 99.47 and 99.36 and 99.44.

And the “Proportion of dexamethasone as Dex-TEG” value [2, 4]?
The value was 0.046 and 0.04.

And the “Proportion of dexamethasone as Dex-TEG-Dex” value [2, 4]?
The value was 99.38 and 99.32 and 99.44.

And the solubility [3]?
The solubility was 6.7 µg/mL (≈ 6.79 µM).
